Experiments:
[1] = tested on: Human immunodeficiency virus 1; assay: Antiviral activity against HIV-1 NL4-3(X4) infected in human TZM-bl cells assessed as reduction in viral replication; type: functional, organism-based; details: Human immunodeficiency virus 1, NL4-3(X4)
[2] = tested on: Human immunodeficiency virus 1; assay: Antiviral activity against HIV-1 YU2 […] infected in human TZM-bl cells assessed as reduction in viral replication; type: functional, organism-based; details: Human immunodeficiency virus 1, YU2[…]
[3] = tested on: Human immunodeficiency virus 1; assay: Antiviral activity against HIV-1 89.6 infected in human TZM-bl cells assessed as reduction in viral replication; type: functional, organism-based; details: Human immunodeficiency virus 1, 89.6, TZM-bl
[4] = Cytotoxicity against human TZM-bl cells assessed as reduction in cell viability by CellTitre-Glo assay; type: toxicity, cell-based
[5] = Selectivity index, ratio of CC50 for human TZM-bl cells to IC50 for IC50 for antiviral activity against HIV-1 89.6 infected in human TZM-bl cells; type: toxicity, cell-based; details: read-out: Ratio CC50/IC50
[6] = tested on: Human immunodeficiency virus 1; assay: Synergistic antiviral activity against HIV-1 89.6 infected in human TZM-bl cells assessed as combination index at 450:1 compound and b12 antibody ratio; type: functional
[7] = tested on: Human immunodeficiency virus 1; assay: Synergistic antiviral activity against HIV-1 89.6 infected in human TZM-bl cells assessed as combination index at 45:1 compound and 4E10 antibody ratio; type: functional
[8] = tested on: Human immunodeficiency virus 1; assay: Synergistic antiviral activity against HIV-1 89.6 infected in human TZM-bl cells assessed as antibody dose reduction index at 450:1 compound and b12 antibody ratio; type: functional
[9] = tested on: Human immunodeficiency virus 1; assay: Synergistic antiviral activity against HIV-1 89.6 infected in human TZM-bl cells assessed as combination index at 45:1 compound and 2G12 antibody ratio; type: functional
[10] = tested on: Human immunodeficiency virus 1; assay: Synergistic antiviral activity against HIV-1 89.6 infected in human TZM-bl cells assessed as combination index at 45:1 compound and 447-52D antibody ratio; type: functional
[11] = tested on: Human immunodeficiency virus 1; assay: Synergistic antiviral activity against HIV-1 89.6 infected in human TZM-bl cells assessed as antibody dose reduction index at 45:1 compound and 2G12 antibody ratio; type: functional
[12] = tested on: Human immunodeficiency virus 1; assay: Synergistic antiviral activity against HIV-1 89.6 infected in human TZM-bl cells assessed as combination index at 45:1 compound and KD-247 antibody ratio; type: functional
[13] = tested on: Human immunodeficiency virus 1; assay: Synergistic antiviral activity against HIV-1 89.6 infected in human TZM-bl cells assessed as compound dose reduction index at 45:1 compound and 2G12 antibody ratio; type: functional
[14] = tested on: Human immunodeficiency virus 1; assay: Synergistic antiviral activity against HIV-1 89.6 infected in human TZM-bl cells assessed as compound dose reduction index at 45:1 compound and 2F5 antibody ratio; type: functional
[15] = tested on: Human immunodeficiency virus 1; assay: Synergistic antiviral activity against HIV-1 89.6 infected in human TZM-bl cells assessed as compound dose reduction index at 450:1 compound and b12 antibody ratio; type: functional
[16] = tested on: Human immunodeficiency virus 1; assay: Synergistic antiviral activity against HIV-1 89.6 infected in human TZM-bl cells assessed as combination index at 45:1 compound and 2F5 antibody ratio; type: functional
[17] = tested on: Human immunodeficiency virus 1; assay: Synergistic antiviral activity against HIV-1 89.6 infected in human TZM-bl cells assessed as compound dose reduction index at 45:1 compound and KD-247 antibody ratio; type: functional
[18] = tested on: Human immunodeficiency virus 1; assay: Synergistic antiviral activity against HIV-1 89.6 infected in human TZM-bl cells assessed as compound dose reduction index at 45:1 compound and 4E10 antibody ratio; type: functional
[19] = tested on: Human immunodeficiency virus 1; assay: Synergistic antiviral activity against HIV-1 89.6 infected in human TZM-bl cells assessed as antibody dose reduction index at 45:1 compound and 447-52D antibody ratio; type: functional
[20] = tested on: Human immunodeficiency virus 1; assay: Synergistic antiviral activity against HIV-1 89.6 infected in human TZM-bl cells assessed as antibody dose reduction index at 45:1 compound and 4E10 antibody ratio; type: functional
[21] = tested on: Human immunodeficiency virus 1; assay: Synergistic antiviral activity against HIV-1 89.6 infected in human TZM-bl cells assessed as antibody dose reduction index at 45:1 compound and KD-247 antibody ratio; type: functional
[22] = tested on: Human immunodeficiency virus 1; assay: Synergistic antiviral activity against HIV-1 89.6 infected in human TZM-bl cells assessed as compound dose reduction index at 45:1 compound and 447-52D antibody ratio; type: functional
[23] = tested on: Human immunodeficiency virus 1; assay: Synergistic antiviral activity against HIV-1 89.6 infected in human TZM-bl cells assessed as antibody dose reduction index at 45:1 compound and 2F5 antibody ratio; type: functional

SMILES | IC50 [1] [µM] | IC50 [2] [µM] | IC50 [3] [µM] | CC50 [4] [µM] | selectivity ratio [5] | also measured
C=C(C)[C@@H]1CC[C@]2(C(=O)NCCCCCCCC(=O)N[C@@H](CC(C)C)[C@H](O)CC(=O)O)CC[C@]3(C)[C@H](CC[C@@H]4[C@@]5(C)CC[C@H](O)C(C)(C)[C@@H]5CC[C@]43C)[C@@H]12 | 0.32 | 5.8 | 0.2 | 8.9 | 45 | –
CC(C)C[C@H](NC(=O)CCCCCCCNC(=O)[C@@]1(C)CC[C@]2(C)CC[C@]3(C)C(=CC(=O)[C@@H]4[C@@]5(C)CC[C@H](O)C(C)(C)[C@@H]5CC[C@]43C)[C@@H]2C1)[C@@H](O)CC(=O)O | > 100 | > 100 | > 100 | > 300 | – | –
CC(C)C[C@H](NC(=O)CCCCCCCNC(=O)[C@@]1(C)CC[C@]2(C)CC[C@]3(C)C(=CC(=O)[C@@H]4[C@@]5(C)CC[C@H](O)C(C)(C)[C@@H]5CC[C@]43C)[C@@H]2C1)[C@H](O)CC(=O)O | > 100 | > 100 | > 100 | > 300 | – | –
CC(C)C[C@H](NC(=O)CCCCCCCNC(=O)[C@]12CC[C@@H](C)[C@H](C)[C@H]1C1=CC[C@@H]3[C@@]4(C)CC[C@H](O)C(C)(C)[C@@H]4CC[C@@]3(C)[C@]1(C)CC2)[C@H](O)CC(=O)O | 3.9 | 40 | 1.1 | 71 | 65 | –
C=C(C)[C@@H]1CC[C@]2(C(=O)NCCCCCCCC(=O)N[C@@H](CC(C)C)[C@@H](O)CC(=O)O)CC[C@]3(C)[C@H](CC[C@@H]4[C@@]5(C)CC[C@H](O)C(C)(C)[C@@H]5CC[C@]43C)[C@@H]12 | 0.27 | 80 | 0.17 | 17 | 100 | –

More lines, main results first:

IC50 [1] [µM] | IC50 [2] [µM] | IC50 [3] [µM] | SMILES | CC50 [4] [µM] | selectivity ratio [5] | also measured
1.7 | 25 | 0.79 | CC(C)C[C@H](NC(=O)CCCCCCCNC(=O)[C@]12CCC(C)(C)C[C@H]1C1=CC[C@@H]3[C@@]4(C)CC[C@H](O)C(C)(C)[C@@H]4CC[C@@]3(C)[C@]1(C)CC2)[C@@H](O)CC(=O)O | 78 | 99 | CI [6]: 0.68; CI [7]: 0.59; Activity_index [8]: 3.6; CI [9]: 0.59; CI [10]: 0.59; Activity_index [11]: 3.1; CI [12]: 0.75; Activity_index [13]: 4.9; Activity_index [14]: 4.3; Activity_index [15]: 3.2; CI [16]: 0.69; Activity_index [17]: 3.3; Activity_index [18]: 2.9; Activity_index [19]: 3.9; Activity_index [20]: 5.5; Activity_index [21]: 2.9; Activity_index [22]: 3.8; Activity_index [23]: 2.7
0.5 | 16 | 0.39 | CC(C)C[C@H](NC(=O)CCCCCCCNC(=O)[C@]12CCC(C)(C)C[C@H]1[C@H]1C(=O)C[C@@H]3[C@@]4(C)CC[C@H](O)C(C)(C)[C@@H]4CC[C@@]3(C)[C@]1(C)CC2)[C@@H](O)CC(=O)O | 128 | 328 | –
3.7 | 43 | 3.5 | CC(C)C[C@H](NC(=O)CCCCCCCNC(=O)[C@]12CC[C@@H](C)[C@H](C)[C@H]1C1=CC[C@@H]3[C@@]4(C)CC[C@H](O)C(C)(C)[C@@H]4CC[C@@]3(C)[C@]1(C)CC2)[C@@H](O)CC(=O)O | 95 | 27 | –
3.2 | 42 | 1 | CC(C)C[C@H](NC(=O)CCCCCCCNC(=O)[C@]12CCC(C)(C)C[C@H]1C1=CC[C@@H]3[C@@]4(C)CC[C@H](O)C(C)(C)[C@@H]4CC[C@@]3(C)[C@]1(C)CC2)[C@H](O)CC(=O)O | 26 | 26 | –

Source: ChEMBL document CHEMBL5126557, “Design, synthesis, and bio-evaluation of novel triterpenoid derivatives as anti-HIV-1 compounds” (Bioorg Med Chem Lett, 2022)
